Reference: patent publication US20240108577A1, “CONTROLLED RELEASE OF […] A SOURCE MATERIAL” (Syqe Medical Ltd., priority 2022, published 2024)

How the values were obtained:
[1] = Pre-packaging refrigeration stability of ground MC powder (5° C.±2° C., up to 12% RH), LOD and U-HPLC of phytocannabinoids; type: physicochemical; conditions: for change in phytocannabinoid concentration during storage: up to 3 months, one-way ANOVA
Protocol: In the described experiment, Bedrocan strain MC powder was stored at 5° C.±2° C. with up to 12% relative humidity (RH) in a polypropylene container, sealed in an aluminum foil pouch (Oliver-Tolas Healthcare Packaging B.V.; Venray, Netherlands). In order to assess its stability during the handling and hold time, samples were taken from three separate growing batches and assayed at baseline and at 1, 2 and 3 months post grinding. Each sample was assayed for loss on drying (LOD), and of the concentrations of the major phytocannabinoids (CBDA, CBD, CBGA, CBN, THCA and THC).
(§1) Analysis of cannabis inflorescences for the main phytocannabinoids (CBDA, CBD, CBGA, CBN, THCA and THC) was performed as follows: 100 mg of ground Cannabis inflorescences were weighed in duplicate from one container and extracted with 25 mL methanol then sonicated for 40 min and centrifuged at 3000 rpm for 5 min. All samples were filtered through a 0.22 μm PP filter vail prior to analysis. The dilution and quantitation were preformed corresponding to calibration curves. The main six phytocannabinoids were analyzed by ultra-high-performance liquid chromatography (UHPLC: […]) system with a refrigerated auto-sampler, thermostatic column oven and ultraviolet detector, Waters ACQUITY UPLC H-Class. Chromatographic separation was achieved using UPLC column Waters Acquity C18, 1.7 μm particles, 2.1×150 mm maintained at 30° C. The phytocannabinoids were separated using a gradient elution with mobile phases of 0.1% (v/v) formic acid in double-distilled water (phase A) and acetonitrile (phase B), respectively. A constant flow rate of 0.4 mL/min was employed throughout. The gradient profile varied from 70% to 100% B in 10.5 min, held for 0.5 min in these conditions and then returned to the initial conditions.
(§2) For THC and CBD, the concentrations of the acid and its neutral counterpart were summed and reported as the total content. For example, the concentration of total THC […] was calculated as: Total THC=THCA*0.877+THC, with 0.877 being the molar ratio between the two compounds that corrects for a change in the mass of THCA as a result of the loss of CO2 (decarboxylation). This is shown in FIG. 7A: “U-HPLC analysis of the Bedrocan cultivar”.
(§3) R software (V.1.1.463) with tidyverse (17) package was used to analyze changes in outcome measures by one way ANOVA test, using Fisher's exact test analysis. All analyses were followed by a Tukey post-hoc test for multiple comparison. Data are presented as Mean±95% confidence interval (CI). Differences were considered significant at the p<0.05 level.

[2] = Long-term stability of ground cannabis packaged in Syqe cartridges at 25° C.±2° C. (RH 60%±5%), LOD and U-HPLC; type: physicochemical; conditions: for change in phytocannabinoid amount during storage: RH 60%, up to 24 months, one-way ANOVA
Protocol: (§4) In some embodiments, once cartridges are produced, they are stored, distributed and used at RT. In order to assess the shelf life of such cartridges, a long-term stability study was performed, during which cartridges were stored at 25° C.±2° C. (RH 60%±5%) in a calibrated and certified stability chamber (Memmert Constant climate chamber HPP260). 9, 6, 9, 8, 7, 4 and 4 separate growing batches were tested at baseline and after 3, 6, 9, 12, 18 and 24 months, respectively. At each time point samples of the ground inflorescence within the cartridges were analyzed for LOD and for the amount (mg) of each of the major phytocannabinoids (CBDA, CBD, CBGA, CBN, THCA and THC). Of the same batches, THC aerosolized by the Syqe inhaler was analyzed at baseline and at 6, 9, 18 and 24 months.
as §1, §2, §3

[3] = Stability of Syqe cartridges stored at 30° C.±2° C. (65% RH±5% RH), LOD and U-HPLC; type: physicochemical; conditions: for change in phytocannabinoid amount during storage: 65% RH, up to 6 months, one-way ANOVA; for amounts detected at all time points: BL to 6 months
Protocol: Additionally, to assess the effects of a warmer temperature on MC, Syqe cartridges were stored post-production at an elevated temperature and humidity of 30° C.±2° C. (65% RH±5% RH). Three different growing batches were analyzed at baseline and at 1, 2, 4 and 6 months of storage.
as §1, §2, §3

[4] = Heating of ground cannabis samples to target temperatures 60-150° C.; vaporized THC measured in aerosol, residual terpenes by GC/MS; type: physicochemical; conditions: 135 mg ground cannabis, THC measured in the aerosol, FIG. 6A
Protocol: The vaporization plots in FIGS. 6A-B show results of an experiment performed by the inventors in which samples of 135 mg of ground cannabis were heated to several target temperatures, including 60° C., 70° C., 80° C., 90° C., 100° C., 110° C., 120° C., 130° C., 140° C. and 150° C. At each of the target temperatures, vaporized THC was measured in the aerosol. At each of the target temperatures, the residual mass of ground cannabis was analyzed using Gas Chromatography-Mass Spectrometry (GC/MS) to determine existence of terpenes, such as: Linalool, Isopulegol, Geraniol, Caryophyllene, […] Humulene<alpha-> and Nerolidol. The total terpenes residue (as remaining in the ground cannabis) is indicated by the dashed line in FIG. 6A. Based on the residual mass of terpenes, the released (vaporized) amount terpenes was calculated, by subtracting the measured residual mass from a respective reference mass.
As can be observed from FIG. 6A, THC (indicated by the continuous line) release started at a target temperature of 130 degrees C., and increased with the rising of the target temperature (up to 150 degrees C.).

[5] = THC dose aerosolized by the Syqe inhaler from cartridges stored at 25° C. up to 24 months; type: physicochemical; conditions: for aerosolized THC dose: inhaler set to 500 μg THC, mean±95% CI
Protocol: as §4
In some embodiments, the Syqe inhaler is preprogrammed with several distinct heating protocols. In some embodiments, each heating protocol is tailored to heat a VC and deliver an aerosol containing 250, 500, 750 or 1,000 μg or intermediate, larger or smaller amounts of THC to the user. In some embodiments, THC serves as an indicator for dose selection and is optionally delivered with an entourage of phytocannabinoids, terpenes and other molecules of the whole inflorescence that vaporize into the aerosol with it. […] Other dosage amounts are also to be contemplated, any may also serve as optimal dosing, depending on the need. For example, dosage amounts of between 50-5000 μg Δ^9-THC, 200-1000 μg Δ^9-THC, 50-500 μg Δ^9-THC, 1000-5000 μg Δ^9-THC, or intermediate, higher or lower ranges.
In the framework of the two-year stability study, samples were also taken for aerosolization using the Syqe Inhaler. The Syqe Inhaler was set to aerosolize 500 μg THC doses, in accordance with some embodiments. Data is provided only for time points in which three or more batches were tested (namely, BL and 6, 9, 18 and 24 months). […] BL, 6-, 9-, 18-, and 24-months' values were 484.76±31.28n, 486.30±50.56n, 563±22.06 μg, 597.94±16.75 μg and 554.67±36.00 μg, respectively. All aerosolized THC doses were well within the 500 μg±25% range (i.e., 375-625 μg) that apply to pharmaceutical grade inhalers (16).

[6] = after four years, room temperature (22 C), light or darkness (conditions A and B); cited from earlier work

Row | Structure (SMILES) | change in phytocannabinoid concentration during storage [1] | change in phytocannabinoid amount during storage ([2]; 25° C.) | change in phytocannabinoid amount during storage [3] | amounts detected at all time points [3] | further results
1 | CCCCCc1cc(O)c2c(c1)OC(C)(C)c1ccc(C)cc1-2 [CBN, Cannabinol] | no significant change | increased significantly | increased significantly |  | 
2 | CCCCCc1cc2c(c(O)c1C(=O)O)[C@@H]1C=C(C)CC[C@H]1C(C)(C)O2 (relative stereo) [THCA, (−)-Δ^9-trans-tetrahydrocannabinolic acid] | no significant change | decreased significantly | decreased significantly |  | 
3 | C=C(C)[C@@H]1CCC(C)=C[C@H]1c1c(O)cc(CCCCC)c(C(=O)O)c1O [CBDA, Cannabidiolic acid] | no significant change | no significant change |  | mostly undetected | pre-storage amount ([2]; before storage): ≤ 0.006 mg/sample
4 | CCCCCc1cc(O)c(C/C=C(\C)CCC=C(C)C)c(O)c1C(=O)O [CBGA, Cannabigerolic acid] | no significant change | decreased significantly | decreased significantly |  | 
5 | C=C(C)[C@@H]1CCC(C)=C[C@H]1c1c(O)cc(CCCCC)cc1O [CBD, Cannabidiol, reference compound] |  |  |  | mostly undetected | concentration detected at all time points ([1]; BL to 3 months): mostly undetected; concentration detected at all time points ([2]; 25° C., BL to 24 months): mostly non-detected
6 | CCCCCc1cc(O)c2c(c1)OC(C)(C)[C@@H]1CCC(C)=C[C@@H]21 [THC, (−)-Δ^9-trans-tetrahydrocannabinol] | no significant change | increased | increased significantly |  | target temperature at which THC release started [4]: 130 degrees C.; change in phytocannabinoid amount during storage ([2]; 25° C., listed as Δ^9-THC): increased significantly; aerosolized THC dose ([5]; 6 months at 25° C.): 486.30±50.56 n; aerosolized THC dose ([5]; 9 months at 25° C.): 563 ± 22.06 µg; aerosolized THC dose ([5]; 18 months at 25° C.): 597.94 ± 16.75 µg; aerosolized THC dose ([5]; 24 months at 25° C.): 554.67 ± 36.00 µg; range within which all aerosolized THC doses remained ([5]; BL to 24 months at 25° C., 500 μg±25%): 375 to 625 µg; aerosolized THC dose ([5]; BL): 484.76±31.28 n; THC degraded [6]: ~100%
